Measured values taken from patent US12570970B2, “Inorganic phosphate as a stabilizer for phytase enzymes” (DANISCO US INC, priority 2018, dated 2026).
Where a name gives a salt, the structure may show the parent alone. Blank lines part the entries; values can stand above or below the molecule they belong to.

Assays:
BP-17 phytase [1] = assay: Thermal inactivation of BP-17 phytase at 70° C. in the presence of stabilizing salts, residual activity by colorimetric assay; type: biochemical, Buttiauxella sp.; conditions: for phytase activity state: 70° C.
Procedure: An experiment was performed to determine whether the addition of excipients during thermal stress conditions allows the phytase enzyme to retain its activity. A temperature was selected at which the phytase enzyme is completely inactivated in the absence of excipient after 30-minutes incubation. Excipient solutions were prepared at their highest solubility. then titrated from highest to lowest concentrations prior to their addition to the phytase UFC. The enzyme/excipient combinations were then exposed to a temperature of 70° C., and the residual activity was measured after 2, 5, 10, 20, 30, and 60-minutes incubation via a colorimetric activity assay
A 20% (or 1.41 M) sodium phosphate solution was prepared by dissolving 5 grams of sodium phosphate dibasic anhydrous into 25 mL of water. The pH was adjusted to 5.5 using concentrated phosphoric acid. A 25% (or 0.85 M) sodium citrate solution was prepared by dissolving 5 grams of sodium citrate dihydrate into 20 mL of water. The pH was adjusted to 5.5 using 80% citric acid.
A volume of 80 μL of the 20% sodium phosphate stock solution was added to the first well of 8 different 12-well PCR strips. A volume of 40 μL of −Q water was added to wells 2, 3. 4, 5, and 6 of each PCR strip. The sodium phosphate stock solution was serially diluted 2-fold sequentially from well 1 to well 6. A volume of 80 μL of the 25% sodium citrate stock solution was added to well 7 of each PCR strip. A volume of 40 μL of water was added to wells 8, 9, 10, 11, and 12 of each PCR strip. The sodium citrate stock solution was serially diluted 2-fold sequentially from well 7 to well 11, leaving well 12 to contain water only. The BP-17 phytase UFC was diluted 50-fold in autoclaved water. A volume of 40 μL of the diluted UFC was added to each well of the 8 different 12-well PCR strips containing the diluted excipients.
The temperature cycler was programmed to a temperature of 70° C. One PCR strip was sealed and placed immediately on ice for the time zero measurement. The remaining PCR strips were sealed, placed inside the PCR, incubated for varying increments of time (0.5, 2, 5, 10, 20, 30, and 60 minutes), then removed from the PCR and placed immediately on ice. After each of the PCR strips had been collected on ice, they were placed on a 96-well PCR tube rack and centrifuged for 2 minutes at 3500 rpm.
As some precipitation occurred during thermal inactivation, the PCR strips were subjected to centrifugation and the supernatant was removed and diluted with assay buffer (0.1 M acetate Buffer pH 5.5+0.05% w/v Tween 20) to a final activity of 0.012 FTU/mL in a non-binding (Corning 3641) 96-well plate. A volume of 40 μL was transferred from the enzyme dilution plate into a separate reaction plate (Costar 9017, medium binding). A volume of 40 μL of substrate (150 μM sodium phytate) was then added to each of the wells of the reaction plate. The reaction plate was sealed and incubated for 10 minutes at 25° C. and 900 rpm. A volume of 170 μL of Pi Blue stop/color reagent (POPB-500 by BioAssay Systems US) was then added to each well of the reaction plate to stop the reaction. The plate was sealed and incubated for 30 minutes at 25° C. and 400 rpm for color development, then read in a spectrophotometer at 620 nm.

BP-17 phytase [2] = assay: Mechanism of inhibition: phytase activity with titrated substrate and titrated excipient (PNPP assay); type: biochemical, Buttiauxella sp.; conditions: ambient assay conditions (25° C.)
Procedure: Kinetic analysis was performed to determine the mechanism of stabilization of both the sodium phosphate and sodium citrate with respect to the phytase enzyme by measuring the activity of phytase in the presence of both titrated substrate and titrated excipient concentrations.
The BP-17 phytase UFC was diluted 7,000-fold in 0.1 M acetate buffer pH 5.5.
The substrate stock solution (400 mM) was prepared by dissolving 0.923 grams of 4-nitrophenyl phosphate di (tris) salt into 5 mL of 0.25 M acetate buffer pH 5.5. A volume of 200 μL of the substrate stock solution was added to columns 1 and 7 of a 96-well plate. A volume of 100 μL of 0.25 M acetate Buffer pH 5.5 was added to columns 2-6 and 8-12 of the same 96-well plate. Serial dilutions were performed by transferring 100 μL from column 1 into column 2 of the 96-well plate, and then repeating this dilution pattern across the plate to column 6 so that the following substrate concentrations were made: 400, 200, 100, 50, 25, and 12.5 mM. The same serial dilutions were performed across the second half of the plate from columns 7 to 12.
A 20% (or 1.41 M) sodium phosphate solution was prepared by dissolving 5 grams of sodium phosphate dibasic anhydrous into 25 mL of 0.1 M acetate buffer pH 5.5. […]

BP-17 phytase [3] = assay: Phytase melting temperature (Tm) in the presence of excipients, differential scanning fluorimetry (nanoDSF); type: physicochemical, Buttiauxella sp.
Procedure: An experiment was performed to determine whether the addition of different excipients during thermal exposure increases the melting temperature of the phytase enzyme in the liquid state. Excipient solutions were prepared at their highest solubility, then titrated from highest to lowest concentrations prior to their addition to the phytase UFC. The enzyme/excipient combinations were then exposed to a temperature profile of 21-95° C., and the melting temperatures were measured via differential scanning fluorimetry. The concentration of phytase in the UFC was measured at 123.9 g/L via HPLC. […] A 20% phytic acid solution was prepared by dissolving 1 gram of phytic acid into 5 mL of 0.1 M acetate buffer pH 5.5. The pH was adjusted from 4.2 to 5.47 using 20% NaOH, and then the solution was filtered using a 0.45 μM syringeless filter. A 25% sodium sulfate anhydrous solution was prepared by dissolving 5 grams into 20 mL of water. The pH was adjusted to 5.6 using sulfuric acid, and then the solution was filtered using a 0.45 μM syringeless filter. A 20% sodium polyphosphate solution was prepared by dissolving 5 grams into 25 mL of water. The pH was adjusted to 5.6 using concentrated phosphoric acid, and then the solution was filtered using a […] syringeless filter. […] The pH was adjusted to 5.6 using 80% citric acid, and then the solution was filtered using a 0.45 μM syringeless filter. A 20% sodium phosphate dibasic solution was prepared by dissolving 2 grams into 10 mL of water. The pH was adjusted to 5.6 using concentrated phosphoric acid, and then the solution was filtered using a 0.45 μM syringeless filter. A volume of 100 μL of an excipient stock solution was added to well A in column 1 of a 96-well plate. A volume of 50 μL of water was added to each well B-H in column 1 of the same 96-well plate. The excipient stock solution was titrated 2-fold down the column of the plate by transferring 50 μL into each subsequent well. A volume of 80 μL of the pH adjusted UFC was added to each of the wells in column 1 of a new 96-well plate. A volume of 20 μL was transferred from each well of the titrated excipient directly into the corresponding well containing the UFC. The 96-well plate containing the enzyme and excipient combinations was mixed on a plate shaker for 5 seconds. Standard capillaries for the nanoDSF were filled by dipping a capillary in each well of the 96-well plate, and then loading onto the Nanotemper instrument. The Nanotemper instrument was programmed to run at 10% excitation power and 21-95° C. with a 1° C./minute ramp. The Nanotemper instrument monitors the shift of intrinsic tryptophan fluorescence of proteins upon unfolding by measuring wavelengths at 330 and 350 nm.

SMILES: O.O.O=C([O-])CC(O)(CC(=O)[O-])C(=O)[O-].[Na+].[Na+].[Na+] [sodium citrate, Sodium citrate dihydrate, reference compound]
phytase activity retained (BP-17 phytase [1]; 425 mM sodium citrate, 60-minutes incubation at 70° C., FIG. 7): approximately 90% | phytase activity retained (BP-17 phytase [1]; half of 425 mM sodium citrate, 60-minutes incubation at 70° C., FIG. 7): ≤ 50% | phytase activity state (BP-17 phytase [1]; sodium citrate below half of 425 mM, FIG. 7): inactivated | excipient concentration at which phytase activity loss levels out (BP-17 phytase [2]; increasing phytic acid substrate, FIG. 9): ≥ 26 mM

increase in melting temperature of phytase (BP-17 phytase [3]; molar ratio of 130:1 sodium phosphate to phytase, phytase UFC, liquid state, FIGS. 2 and 3): approximately 5.5 °C | increase in melting temperature compared with citrate (BP-17 phytase [3]; normalized for charge equivalents, FIG. 5): much higher | relative residual phytase activity retained (BP-17 phytase [1]; 352 mM sodium phosphate, 60-minutes incubation at 70° C., FIG. 6): approximately 90% | phytase activity retained (BP-17 phytase [1]; half of 352 mM sodium phosphate, 60-minutes incubation at 70° C., FIG. 6): approximately 60% | phytase activity state (BP-17 phytase [1]; sodium phosphate below half of 352 mM, FIG. 6): nearly inactivated | phytase activity in presence of excipient and substrate (BP-17 phytase [2]; 150 mM sodium phosphate and 100 mM phytic acid substrate, FIG. 8): very little activity
SMILES: O=P([O-])([O-])O.[Na+].[Na+] [sodium phosphate, Sodium phosphate, dibasic, anhydrous]
stabilizing effect on Tm compared with other excipients (BP-17 phytase [3]; equivalent molar ratios to the phytase, normalized for anion equivalents, FIG. 4): greater than that of sodium phytate, sodium polyphosphate, and sodium sulfate

increase in Tm of phytase (BP-17 phytase [3]; molar ratio of 14:1 sodium phytate to phytase, phytase UFC, liquid state, FIG. 1): approximately 2.7 °C
SMILES: O=P(O)(O)O[C@H]1[C@H](OP(=O)(O)O)[C@@H](OP(=O)(O)O)[C@H](OP(=O)(O)O)[C@@H](OP(=O)(O)O)[C@H]1OP(=O)(O)O [sodium phytate, Phytic acid sodium salt hydrate, reference compound]
